Measured values reported in PMC11523213, “Fluorinated N-Heterocyclic Carbene Silver(I) Complexes with High Cancer Cell Selectivity” (Organometallics, 2024).
Where two headings read alike, the source gives them in different places.

What was measured:
MCF-7 = experiment: Cell viability (MTT) assay, 24 h; format: cell-based, human; details: for IC50: 24 h treatment, MTT, n = 9, read-out: IC50 ± SD, MCF-7
Protocol: (§1) All cells were treated with compounds for 24 h, and cell viability was determined via the MTT assay. […] The nonfluorinated benzyl–imidazole complex [Ag2(L5)2](PF6)2 was synthesized and screened to determine if the fluorine has any influence on cytotoxicity.
(§2) All cytotoxicity assays were conducted using human cell lines: breast adenocarcinomas (MDA-MB-231 and MCF-7) and non-cancerous epithelial retinal (ARPE-19) cell lines. All cell lines were routinely maintained as monolayer cultures in an appropriate complete medium: MCF-7 and ARPE-19 in high glucose DMEM complete medium (including 10% FBS, 1 mM sodium pyruvate, 2 mM L-glutamine and 1% pen-strep) and MDA-MB-231 in RPMI-1640 complete medium (including 10% FBS, 1 mM sodium pyruvate, 2 mM L-glutamine and 1% pen-strep) and grown in either T-25 or T-75 flasks at 37 °C and 5% CO2. Prior to chemosensitivity studies, cell monolayers were passaged using Trypsin-EDTA (0.05%) and diluted to a concentration of 4 × 10^4 cells/mL. All assays were conducted using 96-well plates, in which 100 μL of the cell suspension was added for 24 h at 37 °C and 5% CO2 and then 100 μL of compound/media dilutions for a further 24 h (compound stocks were made using sterile DMSO at 100 mM prior to dilution and a maximum of 0.1% DMSO used in each assay).

MDA-MB-231 = experiment: Cell viability (MTT) assay, 24 h; format: cell-based, human; details: for IC50: 24 h treatment, MTT, n = 9, read-out: IC50 ± SD, MDA-MB-231; for MCF-7/MDA-MB-231 SR (selectivity ratio): ratio of IC50 MCF-7 versus MDA-MB-231
Protocol: as §1, §2

ARPE-19 = experiment: Cell viability (MTT) assay, 24 h, noncancerous cells; format: cell-based, human; details: n = 9, noncancerous retinal epithelia, read-out: IC50 ± SD, ARPE-19
Protocol: as §1, §2

DNA = system: DNA; set-up: method as in PMID 27060216; details: cited from earlier work
[1] = Homo sapiens, ARPE-19, 24 h treatment

In the case of [NH2][Pt]([NH2])([Cl])[Cl] [CDDP, cisplatin, reference compound], the IC50 (MCF-7) is reported as 54 ± 3 µM, the “Selectivity index (SI) MCF-7 vs ARPE-19” value (MCF-7; SI > 1 indicates selectivity for the breast cancer line, * = minimum value) is reported as ≥ 1.84 and the IC50 (MDA-MB-231) is reported as > 100 µM. The “MCF-7/MDA-MB-231 SR (selectivity ratio)” value (MDA-MB-231) was < 0.54 and the IC50 (ARPE-19; 24 h treatment) was > 100 µM.
In the case of Fc1ccc(C[n+]2cn(Cn3c[n+](Cc4ccc(F)cc4)c4ccccc43)c3ccccc32)cc1 [H2L4(PF6)2, 1,1′-Bis-(4-fluorobenzyl)-3,3′-methylenedibenzimidazolium dihexafluorophosphate], the IC50 (MCF-7; Homo sapiens, MCF7) is reported as > 100 µM, the IC50 (MDA-MB-231; Homo sapiens, MDA-MB-231) is reported as > 100 µM and the IC50 (ARPE-19; [1]) is reported as > 100 µM.
With Fc1ccc(Cn2c[n+](Cc3ccc(F)cc3)c3ccccc32)cc1 [HL2(PF6), 1,3-Bis-(4-fluorobenzyl)benzimidazolium hexafluorophosphate] the IC50 (MCF-7; Homo sapiens, MCF7) was > 100 µM, the IC50 (MDA-MB-231; Homo sapiens, MDA-MB-231) was 42.6 ± 0.05 µM and the “MCF-7/MDA-MB-231 SR (selectivity ratio)” value (MDA-MB-231) was > 2.35. For the same molecule, the IC50 (ARPE-19; [1]) was > 100 µM.
In the case of COc1cccc2c1C(=O)c1c(O)c3c(c(O)c1C2=O)C[C@@](O)(C(=O)CO)C[C@@H]3O[C@H]1C[C@H](N)[C@H](O)[C@H](C)O1 [doxorubicin], the “Binding constant to DNA” value (DNA) is given as 2.33 ± 0.33 × 10^4 M^–1.
